According to ChEMBL document CHEMBL4007485, “Examining the structure-activity relationship of benzopyran-based inhibitors of the hypoxia inducible factor-1 pathway” (Bioorg Med Chem Lett, 2017):

Tested on: not listed separately
Assay: Inhibition of HIF-1 pathway in human LN229 cells harboring HRE-AP assessed sa reduction in VEGF transcription pretreated for 1 hr under normoxic condition followed by 24 hrs incubation under hypoxic condition by HRE-[…] reporter gene assay
Format: cell-based
Conditions: LN-229

| SMILES | IC50 |
| --- | --- |
| COc1ccc(S(=O)(=O)N(Cc2ccc3c(c2)C=CC(C)(C)O3)CC2COC2)cc1OC | 4 µM |
| CC1(C)C=Cc2cc(CN(c3ccccc3)S(=O)(=O)c3ccc(F)c(F)c3)ccc2O1 | > 5 µM |
| COc1ccc(S(=O)(=O)N(Cc2ccc(CN3CCOCC3)cc2)C2CCC2)cc1OC | 1 µM |
| CC1(C)C=Cc2cc(CN(C3CCCC3)S(=O)(=O)c3ccc(CBr)cc3)ccc2O1 | 3 µM |
| COc1ccc(S(=O)(=O)N(Cc2ccc3c(c2)C=CC(C)(C)O3)C2CCCC2)c(OC)c1 | 1.5 µM |
| COc1ccc(S(=O)(=O)N(Cc2ccc3c(c2)C=CC(C)(C)O3)C2CCCC2)cc1OC | 0.5 µM |
| COc1ccc(S(=O)(=O)N(Cc2ccc3c(c2)CCO3)C2CCC2)cc1OC | 3.5 µM |
| COc1ccc(S(=O)(=O)N(Cc2cc3c(cc2Br)OC(C)(C)C=C3)c2ccccc2)cc1OC | 3.1 µM |
| COc1ccc(S(=O)(=O)N(Cc2ccc3nonc3c2)c2ccccc2)cc1OC | > 5 µM |
| COc1ccc(S(=O)(=O)N(Cc2ccc3c(c2)CCC(C)(C)O3)c2ccccc2)cc1 | 3.2 µM |
| COc1ccc(S(=O)(=O)N(Cc2ccc3c(c2)CCC(C)(C)O3)C2CCC2)cc1OC | 0.39 µM |
| COc1ccc(S(=O)(=O)N(Cc2ccc([N+](=O)[O-])cc2)C2CCC2)cc1OC | > 5 µM |
| CC1(C)C=Cc2cc(CN(C3CCC3)S(=O)(=O)c3ccc(OC(F)(F)F)cc3)ccc2O1 | > 5 µM |
| COc1ccc(S(=O)(=O)N(Cc2ccc[nH]2)C2CCC2)cc1OC | > 5 µM |
| CCOc1ccc(S(=O)(=O)N(Cc2ccc3c(c2)C=CC(C)(C)O3)C2CCC2)cc1 | 4.4 µM |
| CC1(C)C=Cc2nc(CN(C3CCC3)S(=O)(=O)c3ccc(OC(F)(F)F)cc3)ccc2O1 | 4 µM |
| COc1ccc(S(=O)(=O)N(Cc2cccc3c2OC(C)(C)C=C3)c2ccccc2)cc1OC | 1.8 µM |
| COc1ccc(S(=O)(=O)N(Cc2ccc3c(n2)C=CC(C)(C)O3)C2CCC2)cc1OC | 0.28 µM |
| COc1ccc(S(=O)(=O)N(Cc2ccccc2[N+](=O)[O-])C2CCC2)cc1OC | > 5 µM |
| COc1ccc(S(=O)(=O)N(Cc2ccc3c(c2)C=CC(C)(C)O3)c2ccccc2)cc1OC | 0.59 µM |
| COc1ccc(S(=O)(=O)N(Cc2ccc3c(c2)OCO3)C2CCC2)cc1OC | 1.3 µM |

Other lines, results leading:

| IC50 | SMILES |
| --- | --- |
| 1.8 µM | COc1ccc(S(=O)(=O)N(Cc2ccc3c(n2)C=CC(C)(C)O3)C2CCC2)cc1 |
| 0.98 µM | COc1ccc(S(=O)(=O)N(Cc2ccc3c(c2)CCC(C)(C)O3)c2ccccc2)cc1OC |
| > 5 µM | COc1ccc(S(=O)(=O)N(Cc2ccc3c(c2)CCC(C)(C)O3)CC2COC2)cc1OC |
| 0.25 µM | COc1ccc(S(=O)(=O)N(Cc2ccc3c(n2)CCC(C)(C)O3)C2CCC2)cc1OC |
| 1 µM | COc1cccc(S(=O)(=O)N(Cc2ccc3c(c2)C=CC(C)(C)O3)c2ccccc2)c1 |
| 3.3 µM | COc1ccc(S(=O)(=O)N(Cc2cc3c(cc2C)OC(C)(C)C=C3)c2ccccc2)cc1OC |
| > 5 µM | COc1ccc(S(=O)(=O)N(Cc2ccccc2)C2CCC2)cc1OC |
| > 5 µM | COc1ccc(S(=O)(=O)N(Cc2ccc3c(c2)OCO3)c2ccccc2)cc1OC |
| > 5 µM | CCOc1ccc(S(=O)(=O)N(Cc2ccc3c(c2)C=CC(C)(C)O3)C2CCCC2)cc1 |
| > 5 µM | CC1(C)C=Cc2cc(CN(c3ccccc3)S(=O)(=O)c3ccc(C#N)cc3)ccc2O1 |
| > 5 µM | CC1(C)C=Cc2cc(CN(c3ccccc3)S(=O)(=O)c3ccc(OC(F)(F)F)cc3)ccc2O1 |
| > 5 µM | CC1(C)C=Cc2cc(CN(C3CCC3)S(=O)(=O)c3ccc(Br)cc3)ccc2O1 |
| > 5 µM | COc1ccc(CN(C2CCC2)S(=O)(=O)c2ccc(OC)c(OC)c2)c(OC)c1 |
| 3.9 µM | COc1ccc(CN(C2CCC2)S(=O)(=O)c2ccc(OC)c(OC)c2)cc1 |
| 1.2 µM | COc1ccc(S(=O)(=O)N(Cc2ccc3c(n2)CCC(C)(C)O3)C2CCC2)cc1 |
| 2.5 µM | CC1(C)C=Cc2nc(CN(C3CCC3)S(=O)(=O)c3ccc(CBr)cc3)ccc2O1 |
| > 5 µM | COc1ccc(CCN(Cc2ccc3c(n2)C=CC(C)(C)O3)S(=O)(=O)c2ccc(OC)c(OC)c2)cc1OC |
| 3.2 µM | COc1ccc(S(=O)(=O)N(Cc2cc(C)c3c(c2)C=CC(C)(C)O3)c2ccccc2)cc1OC |
| 0.75 µM | COc1ccc(S(=O)(=O)N(Cc2ccc3c(c2)C=CC(C)(C)O3)C2CCC2)cc1OC |
| > 5 µM | Cc1noc(C)c1S(=O)(=O)N(Cc1ccc2c(c1)C=CC(C)(C)O2)C1CCC1 |
| 4.6 µM | CC1(C)C=Cc2cc(CN(C3CCC3)S(=O)(=O)c3ccc(F)c(F)c3)ccc2O1 |

Tested on: LN-229
Assay: Antitumor activity against human LN229 cells xenografted in nude mouse assessed as tumor growth inhibition at 60 mg/kg administered for 5 days in a week for 10 to 12 weeks relative to control
Format: functional
Conditions: not given

| SMILES | fold change (FC) |
| --- | --- |
| COc1ccc(S(=O)(=O)N(Cc2ccc3c(c2)C=CC(C)(C)O3)c2ccccc2)cc1OC | 6 |

Tested on: not listed separately
Assay: Inhibition of HIF-1 pathway in human LN229 cells harboring HRE-AP by alkaline phosphatase reporter gene assay
Format: cell-based
Conditions: LN-229

| SMILES | IC50 |
| --- | --- |
| COc1ccc(S(=O)(=O)N(Cc2ccc3c(c2)C=CC(C)(C)O3)c2ccccc2)cc1OC | 0.6 µM |
